For this test, the target named is SARS-CoV-2 M^pro (Severe acute respiratory syndrome coronavirus 2, UniProt P0DTD1). As to the kind of experiment: biochemical. The note with it: for inhibition at 50 µM: read-out: % Protease inhibition at 50 μM ligand concentration.

Bounds are passed on as bounds.

On to `Cc1cc(O)c2c(=O)c3c(O)cc(O)c4c5c(O)cc(O)c6c(=O)c7c(O)cc(C)c8c1c2c(c34)c(c78)c65` [Hypericin], for which the IC50 was found to be 63.6 ± 5.7 µM and the inhibition at 50 µM came to 42.8 ± 8.2%.
For `C[S@@+]([O-])CCCCN=C=S` [L-sulforaphane], the IC50 was greater than 128 µM and the inhibition at 50 µM came to 8.4 ± 2.7%.
For `Oc1ccc(/C=C/c2cc(O)cc(O)c2)cc1` [Resveratrol], the IC50 is greater than 128 µM and the inhibition at 50 µM stood at 1.8 ± 0.9%.
`O=C(Nc1ccccc1-c1cn2c(CN3CCNCC3)csc2n1)c1cnc2ccccc2n1` [SRT1720]: the “% Protease inhibition at 50 μM ligand concentration” value (50 μM) turned out to be 9.3 ± 2.2%.

As a reminder, the IC50 is the concentration at which inhibition is half-maximal. A low value points to greater potency.
